# Data from publication PMC12332266 (Frontiers in Pharmacology, 2025).
# Like-named read-outs stand apart in the source and are kept apart here.
# Tests used:
# [1] = tested on: hiPSC-CM (iCell Cardiomyocytes^2); test: RTCA CardioECR assessment (impedance and electrophysiology parameters); conditions: for Cell index (CI) MEC: 72-hour treatment, lowest concentration causing at least 20% change from baseline; for RTCA, MEC (CI): change ≥20%, Table 2
# Protocol: (§1) Culture media change was performed every 2 days.
# After seeding on fibronectin-coated xCELLigence ePlates (Agilent Technologies, Inc. Santa Clara, CA, USA), iCell^2 CM were monitored continuously through impedance electrodes. The following impedance parameters were measured: Cell Index (CI, measure of cell “health” and monolayer integrity), beating rate (BR) and amplitude (CI Amplitude, magnitude of contraction). Electrophysiology-like parameters (Field Potential Duration (FPD), considered as a surrogate for QT in in vivo studies, and Spike Amplitude (SA), depolarization induced by Na^+ channel opening) were measured starting from day 4–6, following the monolayer formation. […] All RTCA CardioECR data were double normalized (DMSO control and the baseline) with no further statistical group comparison for the normalized parameters. The variability of the data within the treatment groups was assessed by standard deviation.
# [2] = tested on: hiPSC-CM (iCell Cardiomyocytes^2); test: Intracellular miRNA expression by RT-qPCR in hiPSC-CM pellets after 72-hour treatment; conditions: for hsa-miR-7-5p fold change, intracellular / hsa-miR-96-5p fold change, intracellular / hsa-miR-126-3p fold change, intracellular / hsa-miR-133b fold change, intracellular / hsa-miR-146b-5p fold change, intracellular / hsa-miR-182-5p fold change, intracellular / hsa-miR-185-3p fold change, intracellular / hsa-miR-187-3p fold change, intracellular / hsa-miR-208b-3p fold change, intracellular / hsa-miR-365a-5p fold change, intracellular / hsa-miR-[…] change, intracellular / hsa-miR-29a-5p fold change, intracellular / fold induction at 0.3 µM / fold induction at 1 µM / fold induction at 3 µM / fold induction at 10 µM: 72 h; for fold induction at 0.3 µM / fold induction at 1 µM / fold induction at 3 µM / fold induction at 10 µM: Homo sapiens
# Protocol: as §1
# Total RNA was extracted from hiPSC-CM using the miRNeasy 96 Kit (Qiagen, Hilden, Germany) following the manufacturer’s recommendations. After the extraction, RNA purity was assessed by NanoDrop™ 8000 Spectrophotometer (Thermo Fisher Scientific Inc.). 5–10 ng/μL of RNA per sample were reverse transcribed and pre-amplified by using the TaqMan™ Advanced miRNA cDNA Synthesis Kit (Thermo Fisher Scientific Inc.). The synthesized cDNA was used for RT-qPCR with selected TaqMan™ assays (Thermo Fischer Scientific Inc.). RT-qPCR was carried out following the Applied Biosciences TaqMan miRNA expression assay protocol on a ViiA7 instrument (Thermo Fisher Scientific, Inc.). […] Therefore, to maximize the number of drugs and concentrations, explored in the same study, we pooled the triplicates for intracellular profiling of miRNAs. Therefore, no statistical analysis was performed on the data of miRNA profiling in the pellets of hiPSC-CM.
# Following RTCA CardioECR assessment, hiPSC-CM cell pellets were collected, and total RNA was extracted and purified to investigate miRNAs upregulation by RT-qPCR. […] For the initial assessment of intracellular miRNAs in 12 different treatments, encompassing various drug classes, we used a panel of 17 miRNAs, which we selected from the publicly available data focusing mainly on in vitro models and structural cardiotoxicants (Supplementary Table S2).
# [3] = ref extensive literature search, cited from earlier work
# [4] = read-out: hsa-miR-7-5p fold change
# [5] = read-out: hsa-miR-29a-5p fold change
# [6] = read-out: hsa-miR-146b-5p fold change
# [7] = read-out: hsa-miR-187-3p fold change
# [8] = read-out: hsa-miR-96-5p fold change
# [9] = read-out: hsa-miR-126-3p fold change
# [10] = read-out: hsa-miR-182-5p fold change
# [11] = read-out: hsa-miR-185-3p fold change
# [12] = read-out: hsa-miR-208b-3p fold change
structure (smiles),measurement,setting,value
Cc1nc(Nc2ncc(C(=O)Nc3c(C)cccc3Cl)s2)cc(N2CCN(CCO)CC2)n1 [Dasatinib],Cell index (CI) MEC,[1]; hiPSC-CM,1 µM
same,"RTCA, MEC (CI)",[1]; hiPSC-CM,1 µM
same,Beating Rate MEC,"[1]; human, 72 h",0.3 µM
same,Beating rate (BR) MEC,"[1]; human, 72 h",0.3 µM
same,Cell Index MEC,"[1]; human, 72 h",1 µM
same,Contractility Amplitude MEC,"[1]; human, 72 h",10 µM
same,"RTCA, MEC (BR)","[1]; human, 72 h",0.3 µM
same,Spike Amplitude (SA) MEC,"[1]; human, 72 h",0.3 µM
same,"miRNAs hiPSC-CM pellet, MEC overall",[2],0.3 µM
same,miRNAs upregulated at the MEC overall (hiPSC-CM pellet),[2],"miR-96-5p, miR-133b, miR-182-5p, miR-185-3p, miR-365a-5p"
same,"hsa-miR-7-5p fold change, intracellular",[2]; 0.3 µM,1.4
same,"hsa-miR-96-5p fold change, intracellular",[2]; 0.3 µM,9.0
same,"hsa-miR-126-3p fold change, intracellular",[2]; 0.3 µM,1.6
same,"hsa-miR-133b fold change, intracellular",[2]; 0.3 µM,2.7
same,"hsa-miR-146b-5p fold change, intracellular",[2]; 0.3 µM,0.8
same,"hsa-miR-182-5p fold change, intracellular",[2]; 0.3 µM,2.5
same,"hsa-miR-185-3p fold change, intracellular",[2]; 0.3 µM,6.4
same,"hsa-miR-187-3p fold change, intracellular",[2]; 0.3 µM,1.7
same,"hsa-miR-208b-3p fold change, intracellular",[2]; 0.3 µM,1.2
same,"hsa-miR-365a-5p fold change, intracellular",[2]; 0.3 µM,5.4
same,"hsa-miR-[…] change, intracellular",[2]; 0.3 µM,0.8
same,"hsa-miR-7-5p fold change, intracellular",[2]; 1 µM,0.8
same,"hsa-miR-29a-5p fold change, intracellular",[2]; 1 µM,3.6
same,"hsa-miR-96-5p fold change, intracellular",[2]; 1 µM,4.7
same,"hsa-miR-126-3p fold change, intracellular",[2]; 1 µM,2.1
same,"hsa-miR-133b fold change, intracellular",[2]; 1 µM,1.6
same,"hsa-miR-146b-5p fold change, intracellular",[2]; 1 µM,0.9
same,"hsa-miR-182-5p fold change, intracellular",[2]; 1 µM,0.9
same,"hsa-miR-185-3p fold change, intracellular",[2]; 1 µM,1.5
same,"hsa-miR-187-3p fold change, intracellular",[2]; 1 µM,0.5
same,"hsa-miR-208b-3p fold change, intracellular",[2]; 1 µM,1.2
same,"hsa-miR-365a-5p fold change, intracellular",[2]; 1 µM,0.8
same,"hsa-miR-[…] change, intracellular",[2]; 1 µM,0.8
same,"hsa-miR-7-5p fold change, intracellular",[2]; 3 µM,0.9
same,"hsa-miR-29a-5p fold change, intracellular",[2]; 3 µM,4.0
same,"hsa-miR-126-3p fold change, intracellular",[2]; 3 µM,1.1
same,"hsa-miR-133b fold change, intracellular",[2]; 3 µM,3.3
same,"hsa-miR-146b-5p fold change, intracellular",[2]; 3 µM,6.4
same,"hsa-miR-182-5p fold change, intracellular",[2]; 3 µM,0.8
same,"hsa-miR-185-3p fold change, intracellular",[2]; 3 µM,7.9
same,"hsa-miR-187-3p fold change, intracellular",[2]; 3 µM,1.4
same,"hsa-miR-208b-3p fold change, intracellular",[2]; 3 µM,1.2
same,"hsa-miR-365a-5p fold change, intracellular",[2]; 3 µM,0.7
same,"hsa-miR-[…] change, intracellular",[2]; 3 µM,0.8
same,"hsa-miR-7-5p fold change, intracellular",[2]; 10 µM,0.5
same,"hsa-miR-29a-5p fold change, intracellular",[2]; 10 µM,7.4
same,"hsa-miR-96-5p fold change, intracellular",[2]; 10 µM,0.5
same,"hsa-miR-126-3p fold change, intracellular",[2]; 10 µM,1.8
same,"hsa-miR-133b fold change, intracellular",[2]; 10 µM,1.1
same,"hsa-miR-146b-5p fold change, intracellular",[2]; 10 µM,0.4
same,"hsa-miR-182-5p fold change, intracellular",[2]; 10 µM,0.4
same,"hsa-miR-185-3p fold change, intracellular",[2]; 10 µM,3.3
same,"hsa-miR-187-3p fold change, intracellular",[2]; 10 µM,0.6
same,"hsa-miR-208b-3p fold change, intracellular",[2]; 10 µM,1.6
same,"hsa-miR-365a-5p fold change, intracellular",[2]; 10 µM,3.9
same,"hsa-miR-[…] change, intracellular",[2]; 10 µM,0.7
same,Cmax total,[3]; Supplementary Table 1,0.97 µM
same,Cmax total,[3]; Table 1,0.97 µM
O=c1[nH]cc(F)c(=O)[nH]1 [5-FluoroUracil],Cell index (CI) MEC,[1]; hiPSC-CM,"ND (ND – not detected, magnitude of change was lower than 20%)"
same,"changes in CI or BR and miRNA expression, in words","[1]; hiPSC-CM, 72 h, RTCA CardioECR and intracellular miRNA compared",did not induce either changes in CI or BR above 20% or miRNA expression above 2-fold change
same,"RTCA, MEC (CI)",[1]; hiPSC-CM,"ND (ND – not detected, magnitude of change was lower than 20% for CI/BR)"
same,"intracellular miRNA upregulation in hiPSC-CM, in words",[2],smallest fold change
same,fold induction at 0.3 µM,[2]; [4],0.7
same,fold induction at 1 µM,[2]; [4],0.5
same,fold induction at 3 µM,[2]; [4],0.5
same,fold induction at 10 µM,[2]; [4],0.7
same,fold induction at 0.3 µM,[2]; [5],0.6
same,fold induction at 1 µM,[2]; [5],0.5
same,fold induction at 3 µM,[2]; [5],0.5
same,fold induction at 10 µM,[2]; [5],0.8
same,fold induction at 0.3 µM,[2]; [6],0.6
same,fold induction at 1 µM,[2]; [6],0.3
same,fold induction at 3 µM,[2]; [6],0.3
same,fold induction at 10 µM,[2]; [6],1.6
same,fold induction at 0.3 µM,[2]; [7],1.2
same,fold induction at 1 µM,[2]; [7],1.2
same,fold induction at 3 µM,[2]; [7],1.1
same,fold induction at 10 µM,[2]; [7],0.5
same,Cmax total,[3]; Supplementary Table 1,4.6 µM
same,Cmax total,[3]; Table 1,4.60 µM
COc1cc([C@@H]2c3cc4c(cc3[C@@H](O[C@@H]3O[C@@H]5CO[C@@H](C)O[C@H]5[C@H](O)[C@H]3O)[C@H]3COC(=O)[C@H]23)OCO4)cc(OC)c1O [Etoposide],Field Potential Duration MEC,"[1]; human, 72 h",3 µM
same,Spike Amplitude (SA) MEC,"[1]; human, 72 h",0.3 µM
same,"miRNAs hiPSC-CM pellet, MEC overall",[2],0.1 µM
same,miRNAs upregulated at the MEC overall (hiPSC-CM pellet),[2],miR-187-3p
same,Cmax total,[3]; Supplementary Table 1,33.4 µM
same,Cmax total,[3]; Table 1,33.40 µM
CCCN1C[C@H](CSC)C[C@@H]2c3cccc4[nH]cc(c34)C[C@H]21 [Pergolide],Contractility Amplitude MEC,"[1]; human, 72 h",0.0003 µM
same,Spike Amplitude (SA) MEC,"[1]; human, 72 h",10 µM
same,"miRNAs hiPSC-CM pellet, MEC overall",[2],0.3 µM
same,miRNAs upregulated at the MEC overall (hiPSC-CM pellet),[2],"miR-96-5p, miR-146b-5p"
same,fold induction at 0.3 µM,[2]; [4],1
same,fold induction at 1 µM,[2]; [4],0.7
same,fold induction at 3 µM,[2]; [4],1.4
same,fold induction at 10 µM,[2]; [4],1
same,fold induction at 0.3 µM,[2]; [5],1
same,fold induction at 1 µM,[2]; [5],0.2
same,fold induction at 0.3 µM,[2]; [8],2.8
same,fold induction at 1 µM,[2]; [8],5.6
same,fold induction at 0.3 µM,[2]; [9],1.2
same,fold induction at 1 µM,[2]; [9],1.1
same,fold induction at 3 µM,[2]; [9],1.1
same,fold induction at 10 µM,[2]; [9],2
same,fold induction at 0.3 µM,[2]; [6],4.3
same,fold induction at 1 µM,[2]; [6],6.1
same,fold induction at 3 µM,[2]; [6],20.8
same,fold induction at 10 µM,[2]; [6],1.1
same,fold induction at 0.3 µM,[2]; [10],0.5
same,fold induction at 1 µM,[2]; [10],2.2
same,fold induction at 3 µM,[2]; [10],0.9
same,fold induction at 10 µM,[2]; [10],2.2
same,fold induction at 0.3 µM,[2]; [11],1.1
same,fold induction at 1 µM,[2]; [11],5.6
same,fold induction at 3 µM,[2]; [11],7.2
same,fold induction at 10 µM,[2]; [11],1.9
same,fold induction at 0.3 µM,[2]; [7],0.6
same,fold induction at 1 µM,[2]; [7],0.9
same,fold induction at 3 µM,[2]; [7],21.8
same,fold induction at 10 µM,[2]; [7],0.6
same,fold induction at 0.3 µM,[2]; [12],1.5
same,fold induction at 1 µM,[2]; [12],2.2
same,fold induction at 3 µM,[2]; [12],2.6
same,fold induction at 10 µM,[2]; [12],2.5
same,fold induction at 1 µM,[2]; read-out: hsa-miR-365a-5p fold change,5.2
same,fold induction at 0.3 µM,[2]; read-out: hsa-miR-[…] change,0.9
same,fold induction at 1 µM,[2]; read-out: hsa-miR-[…] change,1.1
same,fold induction at 3 µM,[2]; read-out: hsa-miR-[…] change,1.7
same,fold induction at 10 µM,[2]; read-out: hsa-miR-[…] change,1.4
same,Cmax total,[3]; Supplementary Table 1,12.7 µM
same,Cmax total,[3]; Table 1,12.7 µM
